Measurements taken from patent US11427549B2, “Pyrimidinyloxy benzo-fused compounds as herbicides” (FMC Corporation, priority 2017, dated 2022).

Experiments:
[1] = test system: barnyardgrass (Echinochloa crus-galli); experiment: Test A preemergence, barnyardgrass; assay type: in vivo; details: Echinochloa crus-galli, pre-emergence, 240 h, 0 to 100 scale (0 no effect, 100 complete control), read-out: Plant response rating, Barnyardgrass; for pest or weed control at 31 g/ha: 31 g ai/ha; for pest or weed control at 125 g/ha: 125 g ai/ha
[2] = test system: barnyardgrass (Echinochloa crus-galli); experiment: Test B flooded paddy test, barnyardgrass; details: Echinochloa crus-galli, read-out: Plant response rating, Barnyardgrass (0 to 100 scale, 0 is no effect, 100 is complete control)
kochia (Kochia scoparia) [3] = experiment: Test A postemergence, kochia; assay type: in vivo; details: Bassia scoparia, post-emergence, 240 h, 0 to 100 scale (0 no effect, 100 complete control), read-out: Plant response rating, Kochia; for pest or weed control at 31 g/ha: 31 g ai/ha; for pest or weed control at 125 g/ha: 125 g ai/ha
[4] = test system: ducksalad (Heteranthera limosa); experiment: Test B flooded paddy test, ducksalad; details: Heteranthera limosa, read-out: Plant response rating, Ducksalad (0 to 100 scale, 0 is no effect, 100 is complete control)
[5] = test system: blackgrass (Alopecurus myosuroides); experiment: Test A postemergence, blackgrass; assay type: in vivo; details: Alopecurus myosuroides, post-emergence, 240 h, 0 to 100 scale (0 no effect, 100 complete control), read-out: Plant response rating, Blackgrass; for pest or weed control at 31 g/ha: 31 g ai/ha; for pest or weed control at 125 g/ha: 125 g ai/ha
[6] = test system: wheat (Triticum aestivum); experiment: Test A postemergence, wheat; assay type: in vivo; details: Triticum aestivum, post-emergence, 240 h, 0 to 100 scale (0 no effect, 100 complete control), read-out: Plant response rating, Wheat; for plant injury at 31 g/ha: 31 g ai/ha; for plant injury at 125 g/ha: 125 g ai/ha
[7] = test system: ragweed (common ragweed, Ambrosia elatior); experiment: Test A postemergence, ragweed; assay type: in vivo; details: Ambrosia artemisiifolia, post-emergence, 240 h, 0 to 100 scale (0 no effect, 100 complete control), read-out: Plant response rating, Ragweed; for pest or weed control at 31 g/ha: 31 g ai/ha; for pest or weed control at 125 g/ha: 125 g ai/ha
kochia (Kochia scoparia) [8] = experiment: Test A preemergence, kochia; assay type: in vivo; details: Bassia scoparia, pre-emergence, 240 h, 0 to 100 scale (0 no effect, 100 complete control), read-out: Plant response rating, Kochia; for pest or weed control at 31 g/ha: 31 g ai/ha; for pest or weed control at 125 g/ha: 125 g ai/ha
rice (Oryza sativa) = experiment: Test B flooded paddy test, rice; details: Oryza sativa, read-out: Plant response rating, Rice (0 to 100 scale, 0 is no effect, 100 is complete control)
[9] = test system: ryegrass, Italian (Italian ryegrass, Lolium multiflorum); experiment: Test A postemergence, ryegrass, Italian; assay type: in vivo; details: Lolium multiflorum, post-emergence, 240 h, 0 to 100 scale (0 no effect, 100 complete control), read-out: Plant response rating, Ryegrass, Italian; for pest or weed control at 31 g/ha: 31 g ai/ha; for pest or weed control at 125 g/ha: 125 g ai/ha
[10] = test system: ragweed (common ragweed, Ambrosia elatior); experiment: Test A preemergence, ragweed; assay type: in vivo; details: Ambrosia artemisiifolia, pre-emergence, 240 h, 0 to 100 scale (0 no effect, 100 complete control), read-out: Plant response rating, Ragweed; for pest or weed control at 31 g/ha: 31 g ai/ha; for pest or weed control at 125 g/ha: 125 g ai/ha
[11] = test system: pigweed (Amaranthus retroflexus); experiment: Test A postemergence, pigweed; assay type: in vivo; details: Amaranthus retroflexus, post-emergence, 240 h, 0 to 100 scale (0 no effect, 100 complete control), read-out: Plant response rating, Pigweed; for pest or weed control at 31 g/ha: 31 g ai/ha; for pest or weed control at 125 g/ha: 125 g ai/ha
[12] = test system: pigweed (Amaranthus retroflexus); experiment: Test A preemergence, pigweed; assay type: in vivo; details: Amaranthus retroflexus, pre-emergence, 240 h, 0 to 100 scale (0 no effect, 100 complete control), read-out: Plant response rating, Pigweed; for pest or weed control at 31 g/ha: 31 g ai/ha; for pest or weed control at 125 g/ha: 125 g ai/ha
[13] = test system: galium (catchweed bedstraw, Galium aparine); experiment: Test A postemergence, galium; assay type: in vivo; details: Galium, post-emergence, 240 h, 0 to 100 scale (0 no effect, 100 complete control), read-out: Plant response rating, Galium; for pest or weed control at 31 g/ha: 31 g ai/ha; for pest or weed control at 125 g/ha: 125 g ai/ha
corn (Zea mays) = experiment: Test A postemergence, corn; assay type: in vivo; details: Zea mays, post-emergence, 240 h, 0 to 100 scale (0 no effect, 100 complete control); for Corn plant response rating (crop injury, 0 = no effect, 100 = complete kill) at 31 g/ha: 31 g ai/ha; for Corn plant response rating (crop injury, 0 = no effect, 100 = complete kill) at 125 g/ha: 125 g ai/ha
[14] = test system: barnyardgrass (Echinochloa crus-galli); experiment: Test A postemergence, barnyardgrass; assay type: in vivo; details: Echinochloa crus-galli, post-emergence, 240 h, 0 to 100 scale (0 no effect, 100 complete control), read-out: Plant response rating, Barnyardgrass; for pest or weed control at 31 g/ha: 31 g ai/ha; for pest or weed control at 125 g/ha: 125 g ai/ha
[15] = test system: foxtail, green (green foxtail, Setaria viridis); experiment: Test A preemergence, foxtail, green; assay type: in vivo; details: Setaria, pre-emergence, 240 h, 0 to 100 scale (0 no effect, 100 complete control), read-out: Plant response rating, Foxtail, Green; for pest or weed control at 31 g/ha: 31 g ai/ha; for pest or weed control at 125 g/ha: 125 g ai/ha
[16] = test system: ryegrass, Italian (Italian ryegrass, Lolium multiflorum); experiment: Test A preemergence, ryegrass, Italian; assay type: in vivo; details: Lolium multiflorum, pre-emergence, 240 h, 0 to 100 scale (0 no effect, 100 complete control), read-out: Plant response rating, Ryegrass, Italian; for pest or weed control at 31 g/ha: 31 g ai/ha; for pest or weed control at 125 g/ha: 125 g ai/ha

Compound | pest or weed control at 31 g/ha [1] [%] | pest or weed control at 125 g/ha [1] [%] | pest or weed control at 250 g/ha [2] [%] | pest or weed control at 31 g/ha (kochia (Kochia scoparia) [3]) [%] | pest or weed control at 125 g/ha (kochia (Kochia scoparia) [3]) [%] | pest or weed control at 250 g/ha [4] [%] | pest or weed control at 31 g/ha [5] [%] | pest or weed control at 125 g/ha [5] [%] | plant injury at 31 g/ha [6] [%] | plant injury at 125 g/ha [6] [%] | pest or weed control at 31 g/ha [7] [%] | pest or weed control at 125 g/ha [7] [%] | pest or weed control at 31 g/ha (kochia (Kochia scoparia) [8]) [%] | pest or weed control at 125 g/ha (kochia (Kochia scoparia) [8]) [%] | plant injury at 250 g/ha (rice (Oryza sativa)) [%] | pest or weed control at 31 g/ha [9] [%] | pest or weed control at 125 g/ha [9] [%] | pest or weed control at 31 g/ha [10] [%] | pest or weed control at 125 g/ha [10] [%] | pest or weed control at 31 g/ha [11] [%] | other results
O=C1COC(CCCC(F)(F)F)c2c(Oc3ncc(Cl)cn3)cccc21 (stereo not drawn) [Compound 5, 8-[(5-Chloro-2-pyrimidinyl)oxy]-1-(4,4,4-trifluorobutyl)-1H-2-benzopyran-4(3H)-one] | 0 | 0 | 0 | 0 | 10 | 60 | 10 | 10 | 0 | 0 | 0 | 0 | 0 | 0 | 40 | 0 | 10 | 0 | 0 | 10 | pest or weed control at 125 g/ha [11]: 90%; pest or weed control at 31 g/ha [12]: 0%; pest or weed control at 125 g/ha [12]: 90%; pest or weed control at 31 g/ha [13]: 0%; pest or weed control at 125 g/ha [13]: 30%; Corn plant response rating (crop injury, 0 = no effect, 100 = complete kill) at 31 g/ha (corn (Zea mays)): 0%; Corn plant response rating (crop injury, 0 = no effect, 100 = complete kill) at 125 g/ha (corn (Zea mays)): 10%; pest or weed control at 31 g/ha [14]: 0%; pest or weed control at 125 g/ha [14]: 10%; pest or weed control at 31 g/ha [15]: 0%; pest or weed control at 125 g/ha [15]: 0%; pest or weed control at 31 g/ha [16]: 0%; pest or weed control at 125 g/ha [16]: 0%
O=C1O[C@@H](CCCC(F)(F)F)c2c(Oc3ncc(Cl)cn3)cccc21 [Compound 2, (3S)-4-[(5-Chloro-2-pyrimidinyl)oxy]-3-(4,4,4-trifluorobutyl)-1-(3H)-isobenzofuranone] | 0 | 0 | 0 | 0 | 10 | 0 | 0 | 0 | 0 | 0 | 0 | 30 | 0 | 0 | 0 | 0 | 10 | 0 | 0 | 10 | pest or weed control at 125 g/ha [11]: 50%; pest or weed control at 31 g/ha [12]: 0%; pest or weed control at 125 g/ha [12]: 20%; pest or weed control at 31 g/ha [13]: 0%; pest or weed control at 125 g/ha [13]: 10%; Corn plant response rating (crop injury, 0 = no effect, 100 = complete kill) at 31 g/ha (corn (Zea mays)): 0%; Corn plant response rating (crop injury, 0 = no effect, 100 = complete kill) at 125 g/ha (corn (Zea mays)): 10%; pest or weed control at 31 g/ha [14]: 0%; pest or weed control at 125 g/ha [14]: 0%; pest or weed control at 31 g/ha [15]: 0%; pest or weed control at 125 g/ha [15]: 30%; pest or weed control at 31 g/ha [16]: 0%; pest or weed control at 125 g/ha [16]: 0%
